Assay results as given in paper PMC4560413, “Ethyl Pyruvate Emerges as a Safe and Fast Acting Agent against Trypanosoma brucei by Targeting Pyruvate Kinase Activity” (PLoS ONE, 2015).

Biological target: T1, pyruvate kinase (PK-1 from rabbit muscle) (Oryctolagus cuniculus, UniProt P11974)
T1 construct: gene PKM; purified PK-1 from rabbit muscle
Assay: enzyme kinetics, ATP production by luminescence (CellTiter-Glo), competitive model fit
Type: biochemical

T1 sequence (P11974 2-531): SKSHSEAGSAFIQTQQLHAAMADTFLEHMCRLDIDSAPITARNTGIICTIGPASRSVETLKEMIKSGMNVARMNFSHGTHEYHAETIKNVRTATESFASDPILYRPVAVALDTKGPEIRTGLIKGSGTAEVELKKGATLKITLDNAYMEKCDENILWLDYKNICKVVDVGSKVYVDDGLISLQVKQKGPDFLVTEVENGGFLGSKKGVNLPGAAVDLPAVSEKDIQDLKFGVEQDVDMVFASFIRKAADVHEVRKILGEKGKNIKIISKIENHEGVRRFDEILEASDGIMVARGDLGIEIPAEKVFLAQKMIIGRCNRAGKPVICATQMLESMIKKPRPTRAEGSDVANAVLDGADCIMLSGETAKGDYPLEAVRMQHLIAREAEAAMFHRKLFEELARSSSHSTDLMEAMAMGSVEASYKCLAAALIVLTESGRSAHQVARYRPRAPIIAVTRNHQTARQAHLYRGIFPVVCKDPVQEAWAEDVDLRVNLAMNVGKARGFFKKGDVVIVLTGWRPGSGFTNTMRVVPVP

- Ki: 3 ± 0.29 mM
Compound: CCOC(=O)C(C)=O [ethyl pyruvate]
